Reference: US11642419B2, “Compositions and methods for treating cardiovascular related disorders” (The Regents of the University of Michigan, priority 2015, dated 2023)

Experiments:
ABCA1 [1] = assay: qRT-PCR of ABCA1 expression in J774.1 macrophages; assay type: cell-based, murine; conditions: FIG. 3C
Procedure: (§1) Incorporation of LXR agonist into sHDL is the first and most important step for all subsequent studies. Phospholipids, apoA-I mimetic peptide (22A) and LXR agonist TO901317 (TO) were hydrated in an aqueous solution and the sHDL nanoparticles were formed after 3 cycles of thermal cycling between 25 and 50° C. (see, e.g., Di Bartolo, B. A.; et al., Atherosclerosis 2011, 217 (2), 395-400; Dasseux, J.-L. Peptide/lipid complex formation by co-lyophilization. 2001). The homogeneity of the size distribution was confirmed by gel permeation chromatography (GPC) and scanning electron microscopy (SEM) (FIG. 3A-B). The average particle size of sHDL was 6-14 nm (e.g., 8-10 nm) as determined by dynamic light scattering using a Malvern Nanosizer. […]
(§2) In macrophages, LXRs control transcription of several genes involved in the cholesterol efflux pathway, including ABCA1 and ABCG1. To examine the ability of TO901317-encapsulated sHDL particles to activate LXR-target genes, J774.1 murine macrophage cells were incubated with sHDL blank particles or TO901317-encapsulated sHDL particles (TO901317 at 10^−6M) for 4 hours and the expression of both genes were measured using quantitative real-time PCR (qRT-PCR). […] The resulting cDNA was amplified with appropriate primers using power SYBR Green PCR Master Mix and analyzed on a CFX real-time PCR system (Bio-Rad). […]

ABCG1 [2] = assay: qRT-PCR of ABCG1 expression in J774.1 macrophages; assay type: cell-based, murine; conditions: FIG. 3D
Procedure: as §1, §2

[3] = Liver tissue triglyceride in apoE−/− mice; assay type: in vivo; conditions: 1.5 mg/kg TO901317 i.p., three times per week, 6 weeks, FIG. 12
Procedure: (§3) Six-week-old male apoE^−/− mice were place on atherogenic high fat diet (HFD) for 12 weeks to induce atherosclerotic lesion formation. Mice were randomly divided into five groups, and each group was treated with intraperitoneal injections of the following regimens with an equivalent dose of 1.5 mg/kg entrapped TO901317: 1) PBS, 2) DMSO, 3) TO901317 dissolved in dimethyl sulfoxide (DMSO) (free TO901317), 4) sHDL nanoparticles, or 5) TO901317-encapsulated sHDL particles. The mice were treated for 6 weeks (three times per week, on Monday, Wednesday and Friday). Liver tissue triglyceride concentrations were measured using a Triglyceride Quantification Kit (Cayman). Fifty mg of liver was homogenized in a 5% NP-40 buffer, and assay was performed according to manufacturer's directions.

SREBP1c [4] = assay: qRT-PCR of SREBP1c in the liver of apoE−/− mice; assay type: in vivo; conditions: liver tissues from FIG. 12, FIG. 13
Procedure: as §3
LXR ligands have been implicated in triggering induction of the lipogenic pathway via activation of SREBP-1c in the liver, which leads to the adverse effects of steatosis and hypertriglyceridemia. The liver tissues from FIG. 12 were used to detect the expression of SREBP1c and Fatty acid synthase (FAS) using qRT-PCR as described in FIG. 5.

SREBP1c [5] = assay: qRT-PCR of SREBP1c expression in the liver of C57BL/6J mice; assay type: in vivo; conditions: liver tissues from FIG. 8, FIG. 9
Procedure: To visualize whether sHDL can deliver its cargo to the plaque efficiently, a lipophilic near-infrared fluorescent dye, DiD, was incorporated into sHDL. […] The DiD-labeled sHDL nanoparticles were administrated by tail vein injection at a dose of 100 μg DiD and 10 mg/Kg sHDL to a murine atherosclerosis model. 24 hours post injection, animals were sacrificed and aortas were removed. DiD fluorescence associated with aortas were analyzed using the Xenogen IVIS optical imaging system. […] The side effects of different LXR agonist formulations were assessed.
FIGS. 8A and 8B show the effects of TO901317-encapsulated sHDL particles on plasma lipids in C57BL/6J Mice. C57BL/6J wild type mice were divided into 8 groups and treated with DMSO, TO901317 at 0.5 mg/kg, TO901317 at 1.5 mg/kg, TO901317 at 10 mg/kg, or sHDL blank particles, TO901317-encapsulated sHDL particles with TO901317 at 0.5 mg/kg, TO901317-encapsulated sHDL particles with TO901317 at 1.5 mg/kg, TO901317-encapsulated sHDL particles with TO901317 at 10 mg/kg via intraperitoneal injection. Twenty-four hours later, collected plasma and liver tissues were stored at −80° C. until processed. […]

[6] = Plasma lipids in apoE-deficient mice; assay type: in vivo; conditions: apoE-deficient mice on HFD, i.p., three times per week, 6 weeks, FIG. 22
Procedure: Six-week-old male apoE^−/− mice were place on HFD for 6 weeks to induce atherosclerotic lesion formation. Mice were randomized into 5 groups and received intraperitoneal injection with 1) PBS, 2) DMSO, 3) CD3254 dissolved in dimethyl sulfoxide (DMSO) (free CD3254, at 0.1 mg/kg), 4) sHDL nanoparticles, or 5) CD3254-encapsulated sHDL particles with a dose of 0.1 mg/kg of CD3254. The mice were treated for 6 weeks (three times per week, on Monday, Wednesday and Friday). Direct LDL-cholesterol (LDL-c), direct HDL-cholesterol (HDL-c), and enzymatic-colorimetric assays used to determine plasma total cholesterol (TC) and triglycerides (TG) were carried out at the Chemistry Laboratory of the Michigan Diabetes Research and Training Center.

ABCA1 [7] = assay: qRT-PCR of ABCA1 in blood monocytes of treated apoE−/− mice; assay type: in vivo; conditions: 1.5 mg/kg TO901317 i.p., three times per week, 6 weeks, FIG. 11
Procedure: (§4) The effect of TO901317-encapsulated sHDL on target gene expression in monocytes from apoE^−/− mice was also investigated. Six-week-old male apoE^−/− mice were place on atherogenic high fat diet (HFD) for 12 weeks to induce atherosclerotic lesion formation. Mice were randomly divided into five groups, and each group was treated with intraperitoneal injections of the following regimens with an equivalent dose of 1.5 mg/kg entrapped TO901317: 1) PBS, 2) DMSO, 3) TO901317 dissolved in dimethyl sulfoxide (DMSO) (free TO901317), 4) sHDL nanoparticles, or 5) TO901317-encapsulated sHDL particles. The mice were treated for 6 weeks (three times per week, on Monday, Wednesday and Friday). The monocytes from the blood were isolated and the expression of ABCA1 and ABCG1 was detected by qRT-PCR as described in FIG. 5.

[8] = Plasma lipids in C57BL/6J mice; assay type: in vivo; conditions: TO901317 0.5, 1.5, 10 mg/kg intraperitoneal, 24 hours later, FIG. 8
Procedure: FIGS. 8A and 8B show the effects of TO901317-encapsulated sHDL particles on plasma lipids in C57BL/6J Mice. C57BL/6J wild type mice were divided into 8 groups and treated with DMSO, TO901317 at 0.5 mg/kg, TO901317 at 1.5 mg/kg, TO901317 at 10 mg/kg, or sHDL blank particles, TO901317-encapsulated sHDL particles with TO901317 at 0.5 mg/kg, TO901317-encapsulated sHDL particles with TO901317 at 1.5 mg/kg, TO901317-encapsulated sHDL particles with TO901317 at 10 mg/kg via intraperitoneal injection. Twenty-four hours later, collected plasma and liver tissues were stored at −80° C. until processed. Direct LDL-cholesterol (LDL-c), direct HDL-cholesterol (HDL-c), and enzymatic-colorimetric assays used to determine plasma total cholesterol (TC) and triglycerides (TG) were carried out at the Chemistry Laboratory of the Michigan Diabetes Research and Training Center.

ABCG1 [9] = assay: qRT-PCR of ABCG1 in blood monocytes of treated apoE−/− mice; assay type: in vivo; conditions: 1.5 mg/kg TO901317 i.p., three times per week, 6 weeks, FIG. 11
Procedure: as §4

expression of SREBP1c in the liver (qRT-PCR) (SREBP1c [4]): activated SREBP1c
expression of SREBP1c in the liver (qRT-PCR) (SREBP1c [5]): activated SREBP1c
plasma TG levels [6]: significantly elevated
plasma TG levels [8]: significantly elevated
Compound: O=S(=O)(c1ccccc1)N(CC(F)(F)F)c1ccc(C(O)(C(F)(F)F)C(F)(F)F)cc1 [TO901317]
ABCA1 expression (qRT-PCR) (ABCA1 [1]): upregulated
ABCG1 expression (qRT-PCR) (ABCG1 [2]): upregulated
triglyceride accumulation in the liver [3]: significantly induced the accumulation of triglyceride
ABCA1 expression in monocytes (qRT-PCR) (ABCA1 [7]): activated the expression
ABCG1 expression in monocytes (qRT-PCR) (ABCG1 [9]): activated the expression
